Values quoted from earlier work as cited in patent US20110274652A1, “Methods for Treating Hepatitis C Virus Infection” (VERTEX PHARMACEUTICALS INCORPORATED, priority 2008, published 2011).

System: Hepatitis C virus
Conditions: interferon alfa monotherapy, chronic hepatitis C

interferon alfa
cases with long term remission: ~25%
